Biological target: T1, Axl (Homo sapiens, UniProt P30530)
T1 sequence (P30530 26-894): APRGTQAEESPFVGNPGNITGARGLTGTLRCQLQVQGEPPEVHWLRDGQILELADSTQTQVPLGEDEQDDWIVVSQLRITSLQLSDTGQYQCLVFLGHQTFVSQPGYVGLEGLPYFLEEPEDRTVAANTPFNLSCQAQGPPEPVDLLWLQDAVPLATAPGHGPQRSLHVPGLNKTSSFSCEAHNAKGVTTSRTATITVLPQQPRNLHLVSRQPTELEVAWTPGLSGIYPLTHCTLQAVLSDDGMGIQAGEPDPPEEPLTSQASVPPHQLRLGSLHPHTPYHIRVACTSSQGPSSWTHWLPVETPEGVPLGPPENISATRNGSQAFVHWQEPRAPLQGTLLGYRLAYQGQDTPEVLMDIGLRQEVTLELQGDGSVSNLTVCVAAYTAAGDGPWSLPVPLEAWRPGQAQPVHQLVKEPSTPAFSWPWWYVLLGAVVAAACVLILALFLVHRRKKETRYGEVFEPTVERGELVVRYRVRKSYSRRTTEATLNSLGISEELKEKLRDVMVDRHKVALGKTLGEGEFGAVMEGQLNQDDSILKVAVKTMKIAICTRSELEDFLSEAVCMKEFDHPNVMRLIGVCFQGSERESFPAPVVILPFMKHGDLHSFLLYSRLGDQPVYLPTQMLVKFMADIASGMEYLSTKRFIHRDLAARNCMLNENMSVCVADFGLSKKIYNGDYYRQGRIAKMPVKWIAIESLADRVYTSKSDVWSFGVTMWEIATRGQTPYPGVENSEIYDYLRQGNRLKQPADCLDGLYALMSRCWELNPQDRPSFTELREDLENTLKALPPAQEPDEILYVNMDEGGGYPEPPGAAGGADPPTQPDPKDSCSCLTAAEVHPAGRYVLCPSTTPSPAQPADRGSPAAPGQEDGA
Test: LanthaScreen Eu kinase binding assay for Axl
Settings: read-out: Axl kinase binding activity (Kd)
Description: LanthaScreen® Eu Kinase Binding assays were conducted at Life Technologies using the manufacturer's specifications for each kinase indicated.
Briefly, the principle behind this assay is based upon the binding and displacement of an Alexa Fluor 647-labeled tracer to the kinase of interest. Binding of the tracer to the kinase is detected using an EU-labeled anti-tag antibody. Simultaneous binding of both the tracer and antibody to the kinase gives rise to a FRET-signal. Binding of an inhibitor to the kinase competes for binding with the tracer, resulting in a loss of FRET-signal.
A given compound was diluted in DMSO to make a stock compound solution. The stock compound solution was serially diluted over eight steps in DMSO. Each diluted compound solution in DMSO was diluted in kinase buffer. Afterwards four kinds of working solution were prepared. First, Tracer-Working solution consists of Tracer 236 and Kinase Buffer. Second, Axl, Mer, Tyro3 or Met/anti-GST-AB-Working solution contained one of the kinases Axl, and Mer or anti-GST-AB (=anti glutathione-S-transferase antibody) in Kinase Buffer. Third, anti-GST-AB-Working solution was made with anti-GST-AB and Kinase Buffer. Last, in the DMSO-Working solution DMSO was added to Kinase Buffer to a final concentration to 3%. Each of the four kinds of working solutions were separately added to the assay plate and then incubated for 1 h at room temperature. After incubation, the assay plate was measured with respect to the FRET-Signal with the EnVision (Perkin Elmer) using the program LanthaHTRF-Assay. Data evaluation was done in the Quattro Workflow software. Kd (the equilibrium dissociation constant) values were calculated relative to vehicle (DMSO) control wells.

Kd | Compound
< 100 nM | CCCn1cc(OCCN(C)C)c(C(=O)Nc2ccc(Oc3ccnc4cc(OC)c(OC)cc34)cn2)n1 [Compound 177]
< 100 nM | COc1cc2nccc(Oc3ccc(NC(=O)c4nn(CC(C)=O)cc4OCC(F)(F)F)nc3)c2cc1OC [Compound 19]
< 100 nM | COCCn1cc(OCC(F)(F)F)c(C(=O)Nc2ccc(Oc3ccnc4cc(OC)c(OC)cc34)cc2)n1 [Compound 61]
100 to 500 nM | COc1cc2nccc(Oc3ccc(NC(=O)c4nn(CCO)cc4OCC(F)(F)F)cc3C)c2cc1OC [Compound 56]
< 100 nM | COc1cc2nccc(Oc3ccc(NC(=O)c4nn(C5CCCCC5)cc4OCC(F)(F)F)nc3)c2cc1OC [Compound 69]
< 100 nM | CCCn1cc(OCC(F)(F)F)c(C(=O)Nc2ccc(Oc3ccnc4cc(OC)c(OC)cc34)cc2C)n1 [Compound 27]
< 100 nM | COc1cc2nccc(Oc3ccc(NC(=O)c4nn(CC5CCCCC5)cc4OCC(F)(F)F)nc3)c2cc1OC [Compound 43]
< 100 nM | COc1cc2nccc(Oc3ccc(NC(=O)c4nn(C5CCCC5)cc4OCC(F)(F)F)c(F)c3)c2cc1OC [Compound 47]
< 100 nM | COc1cc2nccc(Oc3ccc(NC(=O)c4nn(CCNC5CC5)cc4OCC(F)(F)F)nc3)c2cc1OC [Compound 168]
< 100 nM | COc1cc2nccc(Oc3ccc(NC(=O)c4nn(C5CCOC5)cc4OCC(F)(F)F)cc3)c2cc1OC (centres unmarked) [Compound 62]
< 100 nM | COc1cc2nccc(Oc3ccc(NC(=O)c4nn(CCO)cc4OCC(F)(F)F)nc3)c2cc1OC [Compound 67]
≥ 500 nM | COc1cc2nccc(Oc3ccc(NC(=O)c4nn(C5CC5)cc4OCC4CNC4)nn3)c2cc1OC [Compound 172]
< 100 nM | CCCn1cc(OCC(F)(F)F)c(C(=O)Nc2ccc(Oc3ccnc4cc(OC)c(OC)cc34)cc2F)n1 [Compound 28]
< 100 nM | COCCOc1cn(C2CC2)nc1C(=O)Nc1ccc(Oc2ccnc3cc(OC)c(OC)cc23)nn1 [Compound 171]
< 100 nM | COc1cc2nccc(Oc3ccc(NC(=O)c4nn(C5CCCC5)cc4OCC(F)(F)F)cc3)c2cc1OC [Compound 60]
< 100 nM | COc1cc2nccc(Oc3ccc(NC(=O)c4nn(C)cc4OCC(F)(F)F)c(F)c3)c2cc1OC [Compound 45]
< 100 nM | CCCn1cc(OCC(F)(F)F)c(C(=O)Nc2ccc(Oc3ccnc4cc(OC)c(OC)cc34)nn2)n1 [Compound 32]
< 100 nM | COc1cc2nccc(Oc3ccc(NC(=O)c4nn(CC(C)(F)F)cc4OCC(F)(F)F)nc3)c2cc1OC [Compound 64]
< 100 nM | COc1cc2nccc(Oc3ccc(NC(=O)c4nn(CCO)cc4OCC(F)(F)F)cc3)c2cc1OC [Compound 59]
< 100 nM | COc1cc2nccc(Oc3ccc(NC(=O)c4nn(CC(C)C)cc4OCC(F)(F)F)cc3F)c2cc1OC [Compound 53]
≥ 500 nM | CCCn1cc(N(C)CC2CCOCC2)c(C(=O)Nc2ccc(Oc3ccnc4cc(OC)c(OC)cc34)cn2)n1 [Compound 34]
< 100 nM | COc1cc2nccc(Oc3ccc(NC(=O)c4nn(CCCN)cc4OCC(F)(F)F)nc3)c2cc1OC [Compound 68]
< 100 nM | CCCn1cc(OCC2CCC2)c(C(=O)Nc2ccc(Oc3ccnc4cc(OC)c(OC(F)(F)F)cc34)cn2)n1 [Compound 167]
< 100 nM | COc1cc2nccc(Oc3ccc(NC(=O)c4nn(CC5CCOC5)cc4OCC(F)(F)F)nc3)c2cc1OC (centres unmarked) [Compound 44]
< 100 nM | CCCn1cc(NCC(F)(F)F)c(C(=O)Nc2ccc(Oc3ccnc4cc(OC)c(OC)cc34)cn2)n1 [Compound 23]
< 100 nM | COc1cc2nccc(Oc3ccc(NC(=O)c4nn(CC5CCC5)cc4OCC(F)(F)F)nc3)c2cc1OC [Compound 42]
< 100 nM | COc1cc2nccc(Oc3ccc(NC(=O)c4nn(C(C)C)c(C)c4OCC(F)(F)F)nc3)c2cc1OC [Compound 2]

Kd | Compound
100 to 500 nM | COc1cc2nccc(Oc3ccc(NC(=O)c4nn(CCN)cc4OCC(F)(F)F)c(F)c3)c2cc1OC [Compound 75]
≥ 500 nM | COc1cc2nccc(Oc3ccc(NC(=O)c4nn(CC(C)O)cc4OCC4CN(C)C4)nc3)c2cc1OC (centres unmarked) [Compound 174]
< 100 nM | COc1cc2nccc(Oc3ccc(NC(=O)c4nn(C5CC5)c(C(C)=O)c4OCC(F)(F)F)nc3)c2cc1OC [Compound 3]
< 100 nM | COc1cc2nccc(Oc3ccc(NC(=O)c4cc(C5CC5)cnc4OCC(F)(F)F)nc3)c2cc1OC [Compound 178]
100 to 500 nM | COc1cc2nccc(Oc3ccc(NC(=O)c4nn(C5CCNC5)cc4OCC(F)(F)F)c(F)c3)c2cc1OC (centres unmarked) [Compound 74]
< 100 nM | COc1cc2nccc(Oc3ccc(NC(=O)c4nn(C(C)(C)C)cc4OCC(F)(F)F)nc3)c2cc1OC [Compound 22]
< 100 nM | CCCn1cc(OCC(F)(F)F)c(C(=O)Nc2ccc(Oc3ccnc4cc(OC)c(OC)cc34)cc2)n1 [Compound 38]
< 100 nM | COc1cc2nccc(Oc3ccc(NC(=O)c4nn(C)cc4OCC(F)(F)F)cc3F)c2cc1OC [Compound 50]
< 100 nM | COc1cc2nccc(Oc3ccc(NC(=O)c4nn(C5CCCC5)cc4OCC(F)(F)F)nc3)c2cc1OC [Compound 40]
< 100 nM | COc1cc2nccc(Oc3ccc(NC(=O)c4nn(CC5CCCC5)cc4OCC(F)(F)F)nc3)c2cc1OC [Compound 71]
< 100 nM | CCCCn1cc(OCC(F)(F)F)c(C(=O)Nc2ccc(Oc3ccnc4cc(OC)c(OC)cc34)cn2)n1 [Compound 36]
< 100 nM | COc1cc2nccc(Oc3ccc(NC(=O)c4nn(C5CC5)cc4OCCC(F)(F)F)nn3)c2cc1OC [Compound 173]
100 to 500 nM | COc1cc2nccc(Oc3ccc(NC(=O)c4nn(CC5CNC5)cc4OCC(F)(F)F)nc3)c2cc1OC [Compound 73]
< 100 nM | COc1cc2nccc(Oc3ccc(NC(=O)c4nn(CC(C)C)cc4OCC(F)(F)F)nc3)c2cc1OC [Compound 21]
< 100 nM | COc1cc2nccc(Oc3ccc(NC(=O)c4nn(C5CCCC5)cc4OCC(F)(F)F)cc3F)c2cc1OC [Compound 52]
< 100 nM | COc1cc2nccc(Oc3ccc(NC(=O)c4nn(CCOC5CCC5)cc4OCC(F)(F)F)nc3)c2cc1OC [Compound 65]
< 100 nM | CCn1nc(C(=O)Nc2ccc(Oc3ccnc4cc(OC)c(OC)cc34)cn2)c(OCC(F)(F)F)c1C [Compound 1]
< 100 nM | COc1cc2nccc(Oc3ccc(NC(=O)c4nn(CCO)cc4OCC(F)(F)F)c(F)c3)c2cc1OC [Compound 46]
< 100 nM | COc1cc2nccc(Oc3ccc(NC(=O)c4nn(C5CC5)cc4OCCC(F)(F)F)nc3)c2cc1OC [Compound 170]
< 100 nM | COCCn1cc(OCC(F)(F)F)c(C(=O)Nc2ccc(Oc3ccnc4cc(OC)c(OC)cc34)cc2F)n1 [Compound 49]
< 100 nM | CCCn1cc(OCC(F)(F)F)c(C(=O)Nc2ccc(Oc3ccnc4cc(OC)c(OC)cc34)c(F)c2)n1 [Compound 25]
< 100 nM | COc1cc2nccc(Oc3ccc(NC(=O)c4nn(CC(C)C)cc4OCC(F)(F)F)cc3C)c2cc1OC [Compound 58]
< 100 nM | COc1cc2nccc(Oc3ccc(NC(=O)c4nn(CC5CC5)cc4OCC(F)(F)F)nc3)c2cc1OC [Compound 41]
100 to 500 nM | COc1cc2nccc(Oc3ccc(NC(=O)c4nn(C)cc4OCC(F)(F)F)cc3C)c2cc1OC [Compound 37]
< 100 nM | CCCn1cc(OCC(F)(F)F)c(C(=O)Nc2ccc(Oc3ccnc4cc(OC)c(OC)cc34)c(C)c2)n1 [Compound 26]
< 100 nM | COc1cc2nccc(Oc3ccc(NC(=O)c4nn(CCO)cc4OCC(F)(F)F)cc3F)c2cc1OC [Compound 51]
